In PubChem BioAssay AID2060620 (Molecular Pharmacology Branch, DTP, NCI, 2025):
pIC50: −log10 of the molar value. Where “and” joins values, the source holds several entries; their conditions need not be identical. Identical values can stand only once.

System: 328373-195-R-J1-PDC complex spheroids, viability % test/control
Assay: Anticancer human tumor 328373-195-R-J1-PDC patient-derived head and neck squamous carcinoma cell line growth inhibition [CLK]
Details: for viability, T/C: stronger effect = lower value
Method in brief: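 Patient-derived tumor cells grown as complex spheroids with HUVEC endothelial cells and mesenchymal stem cells, treated with drug combinations. Concentrations descend in half-log steps from near clinical Cmax, or from 10 microM if Cmax unknown.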

[1] = curve of first compound, second compound 0.0316 µM
[2] = curve of first compound, second compound 0.1 µM
[3] = curve of first compound, second compound 0.316 µM
[4] = curve of first compound, second compound 1 µM
[5] = curve of first compound, second compound 3.16 µM
[6] = curve of first compound, second compound 10 µM
[7] = second compound 0.0316 µM, first compound 0.0316 µM
[8] = second compound 0.0316 µM, first compound 0.1 µM
[9] = second compound 0.0316 µM, first compound 0.316 µM
[10] = second compound 0.0316 µM, first compound 1 µM
[11] = second compound 0.0316 µM, first compound 3.16 µM
[12] = second compound 0.0316 µM, first compound 10 µM
[13] = second compound 0.1 µM, first compound 0.0316 µM
[14] = second compound 0.1 µM, first compound 0.1 µM
[15] = second compound 0.1 µM, first compound 0.316 µM
[16] = second compound 0.1 µM, first compound 1 µM
[17] = second compound 0.1 µM, first compound 3.16 µM
[18] = second compound 0.1 µM, first compound 10 µM
[19] = second compound 0.316 µM, first compound 0.0316 µM
[20] = second compound 0.316 µM, first compound 0.1 µM
[21] = second compound 0.316 µM, first compound 0.316 µM
[22] = second compound 0.316 µM, first compound 1 µM
[23] = second compound 0.316 µM, first compound 3.16 µM
[24] = second compound 0.316 µM, first compound 10 µM
[25] = second compound 1 µM, first compound 0.0316 µM
[26] = second compound 1 µM, first compound 0.1 µM
[27] = second compound 1 µM, first compound 0.316 µM
[28] = second compound 1 µM, first compound 1 µM
[29] = second compound 1 µM, first compound 3.16 µM
[30] = second compound 1 µM, first compound 10 µM
[31] = second compound 3.16 µM, first compound 0.0316 µM
[32] = second compound 3.16 µM, first compound 0.1 µM
[33] = second compound 3.16 µM, first compound 0.316 µM
[34] = second compound 3.16 µM, first compound 1 µM
[35] = second compound 3.16 µM, first compound 3.16 µM
[36] = second compound 3.16 µM, first compound 10 µM
[37] = second compound 10 µM, first compound 0.0316 µM
[38] = second compound 10 µM, first compound 0.1 µM
[39] = second compound 10 µM, first compound 0.316 µM
[40] = second compound 10 µM, first compound 1 µM
[41] = second compound 10 µM, first compound 3.16 µM
[42] = second compound 10 µM, first compound 10 µM
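Note: spheroids exposed to the agents for 7 days.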

Compound `CC(=O)O[C@H]1C(=O)[C@@]2(C)[C@H]([C@H](OC(=O)c3ccccc3)[C@]3(O)C[C@H](OC(=O)[C@H](O)[C@@H](NC(=O)c4ccccc4)c4ccccc4)C(C)=C1C3(C)C)[C@]1(OC(C)=O)CO[C@@H]1C[C@@H]2O` + CNC(=O)c1ccc(Nc2nc(OC3CCCC3)c3c(-c4ccc5nc(C)oc5c4)c[nH]c3n2)c(OC)c1 has a pIC50 [1] of over 7.50, a pIC50 [2] of over 7.50 and a pIC50 [3] of over 7.50. It also gave a pIC50 [4] of over 7.50, a pIC50 [5] of over 7.50 and a pIC50 [6] of over 7.50. It also gave a viability, T/C [7] of 11.7%, a viability, T/C [8] of 7.56% and a viability, T/C [9] of 14%. For the same compound, the viability, T/C [10] was 13.7%, the viability, T/C [11] was 12.7% and the viability, T/C [12] was 22%. It also gave a viability, T/C [13] of 20.2%, a viability, T/C [14] of 22.9% and a viability, T/C [15] of 18.8%. For the same compound, the viability, T/C [16] was 26.1%, the viability, T/C [17] was 25.2% and the viability, T/C [18] was 29.1%. For the same compound, the viability, T/C [19] was 21.1%, the viability, T/C [20] was 23.5% and the viability, T/C [21] was 24.7%. For the same compound, the viability, T/C [22] was 29.3%, the viability, T/C [23] was 32.1% and the viability, T/C [24] was 29.8%. The viability, T/C [25] was 21%, the viability, T/C [26] was 24% and the viability, T/C [27] was 27%. For the same compound, the viability, T/C [28] was 30.8%, the viability, T/C [29] was 36.7% and the viability, T/C [30] was 28%. It also gave a viability, T/C [31] of 22.2%, a viability, T/C [32] of 27.2% and a viability, T/C [33] of 29.8%. It also gave a viability, T/C [34] of 32.7%, a viability, T/C [35] of 37.1% and a viability, T/C [36] of 33.9%. For the same compound, the viability, T/C [37] was 20%, the viability, T/C [38] was 28.6% and the viability, T/C [39] was 30.5%. The viability, T/C [40] was 36.7%, the viability, T/C [41] was 42.3% and the viability, T/C [42] was 36%.
Compound `Nc1ccccc1NC(=O)c1ccc(CNC(=O)OCc2cccnc2)cc1` + CNC(=O)c1ccc(Nc2nc(OC3CCCC3)c3c(-c4ccc5nc(C)oc5c4)c[nH]c3n2)c(OC)c1 has a pIC50 [1] of 7.26, a pIC50 [2] of over 7.50 and a pIC50 [3] of over 7.50. It also gave a pIC50 [4] of over 7.50, a pIC50 [5] of over 7.50 and a pIC50 [6] of over 7.50. It also gave a viability, T/C [7] of 54.2%, a viability, T/C [8] of 46.5% and a viability, T/C [9] of 35.2%. The viability, T/C [10] was 23.1%, the viability, T/C [11] was 19.5% and the viability, T/C [12] was 4.85%. The viability, T/C [13] was 12.5%, the viability, T/C [14] was 11.8% and the viability, T/C [15] was 10.5%. For the same compound, the viability, T/C [16] was 12.9%, the viability, T/C [17] was 13.8% and the viability, T/C [18] was 4.28%. For the same compound, the viability, T/C [19] was 9.94%, the viability, T/C [20] was 9.86% and the viability, T/C [21] was 8.75%. For the same compound, the viability, T/C [22] was 9.9%, the viability, T/C [23] was 15.7% and the viability, T/C [24] was 4.12%. For the same compound, the viability, T/C [25] was 9.33%, the viability, T/C [26] was 7.31% and the viability, T/C [27] was 9.56%. It also gave a viability, T/C [28] of 11.4%, a viability, T/C [29] of 14.1% and a viability, T/C [30] of 3.25%. The viability, T/C [31] was 9.23%, the viability, T/C [32] was 8.04% and the viability, T/C [33] was 10.8%. The viability, T/C [34] was 10.7%, the viability, T/C [35] was 15.6% and the viability, T/C [36] was 3.34%. It also gave a viability, T/C [37] of 12.2%, a viability, T/C [38] of 9.96% and a viability, T/C [39] of 10.2%. For the same compound, the viability, T/C [40] was 12.4%, the viability, T/C [41] was 15.5% and the viability, T/C [42] was 3.38%.
`Nc1ccn(C2OC(CO)C(O)C2(F)F)c(=O)n1` (stereo not drawn) was tested, and the viability, T/C (compound 0.0316 µM) was 4.83% and 1.9%, the viability, T/C (compound 0.1 µM) was 2.69% and 2.98% and the viability, T/C (compound 0.316 µM) was 2.89% and 2.37%. The viability, T/C (compound 1 µM) was 2.8% and 3.02%, the viability, T/C (compound 3.16 µM) was 2.26% and 2.69% and the viability, T/C (compound 10 µM) was 2.3% and 1.66%. For the same compound, the pIC50 (curve of compound) was over 7.50.
In the case of `C=CC(=O)Nc1cc(Nc2nccc(-c3cn(C)c4ccccc34)n2)c(OC)cc1N(C)CCN(C)C` + CN1CCN(c2cc(C(=O)Nc3cc4cc(-c5cnn(C)c5)ccc4cn3)ccn2)CC1, the pIC50 [1] was under 6.52, the pIC50 [2] was under 6.52 and the pIC50 [3] was over 9.02. It also gave a pIC50 [4] of over 9.02, a pIC50 [5] of over 9.02 and a pIC50 [6] of over 9.02. For the same compound, the viability, T/C (second compound 0.0316 µM, first compound 0.000949 µM) was 100%, the viability, T/C (second compound 0.0316 µM, first compound 0.003 µM) was 112% and the viability, T/C (second compound 0.0316 µM, first compound 0.00949 µM) was 99.2%. The viability, T/C (second compound 0.0316 µM, first compound 0.03 µM) was 96.9%, the viability, T/C (second compound 0.0316 µM, first compound 0.0949 µM) was 98.7% and the viability, T/C (second compound 0.0316 µM, first compound 0.3 µM) was 93.6%. The viability, T/C (second compound 0.1 µM, first compound 0.000949 µM) was 83.8%, the viability, T/C (second compound 0.1 µM, first compound 0.003 µM) was 88.1% and the viability, T/C (second compound 0.1 µM, first compound 0.00949 µM) was 87.4%. The viability, T/C (second compound 0.1 µM, first compound 0.03 µM) was 90.7%, the viability, T/C (second compound 0.1 µM, first compound 0.0949 µM) was 96% and the viability, T/C (second compound 0.1 µM, first compound 0.3 µM) was 69%. For the same compound, the viability, T/C (second compound 0.316 µM, first compound 0.000949 µM) was 30.1%, the viability, T/C (second compound 0.316 µM, first compound 0.003 µM) was 35% and the viability, T/C (second compound 0.316 µM, first compound 0.00949 µM) was 30.1%. The viability, T/C (second compound 0.316 µM, first compound 0.03 µM) was 26.3%, the viability, T/C (second compound 0.316 µM, first compound 0.0949 µM) was 26.6% and the viability, T/C (second compound 0.316 µM, first compound 0.3 µM) was 18.1%. The viability, T/C (second compound 1 µM, first compound 0.000949 µM) was 0.15%, the viability, T/C (second compound 1 µM, first compound 0.003 µM) was 0.25% and the viability, T/C (second compound 1 µM, first compound 0.00949 µM) was 0.9%. It also gave a viability, T/C (second compound 1 µM, first compound 0.03 µM) of 0.25%, a viability, T/C (second compound 1 µM, first compound 0.0949 µM) of 1.86% and a viability, T/C (second compound 1 µM, first compound 0.3 µM) of 1.95%. For the same compound, the viability, T/C (second compound 3.16 µM, first compound 0.000949 µM) was 1.21%, the viability, T/C (second compound 3.16 µM, first compound 0.003 µM) was 0.16% and the viability, T/C (second compound 3.16 µM, first compound 0.00949 µM) was 0.17%. It also gave a viability, T/C (second compound 3.16 µM, first compound 0.03 µM) of 0.15%, a viability, T/C (second compound 3.16 µM, first compound 0.0949 µM) of 4.52% and a viability, T/C (second compound 3.16 µM, first compound 0.3 µM) of 2.34%. The viability, T/C (second compound 10 µM, first compound 0.000949 µM) was 0.17%, the viability, T/C (second compound 10 µM, first compound 0.003 µM) was 0.21% and the viability, T/C (second compound 10 µM, first compound 0.00949 µM) was 1.31%. It also gave a viability, T/C (second compound 10 µM, first compound 0.03 µM) of 2.14%, a viability, T/C (second compound 10 µM, first compound 0.0949 µM) of 3.21% and a viability, T/C (second compound 10 µM, first compound 0.3 µM) of 0.21%.
